{
  "source": "patent US20200352976A1",
  "about": "“HYPOMETHYLATING AGENTS FOR USE IN TREATMENT OF CANCER” (Otsuka Pharmaceutical Co., Ltd, priority 2019, published 2020)",
  "key": {"[1]": {"experiment": "Phase 3 trial pharmacokinetics and exposure response", "format": "in vivo, human", "experimental": "A previously developed Population PK model was applied to calculate model-derived estimates for total cycle exposures (Cmax and AUC) from sparse PK samples collected in Cycle 1 for Compound I-1 and decitabine for use in exposure-response analysis for efficacy and safety. The analyses of exposure-efficacy and exposure-safety relationships were performed separately for patients who received Compound I-1 and patients who received decitabine IV. The following analyses were performed to assess relationships of CR with exposure for each exposure measure: frequencies of CR were tabulated and compared between tertiles of exposure; distributions of exposure were compared for patients with and without CR using box plots; and probability of CR was explored using logistic regression models."}, "[2]": {"experiment": "Phase 2 study in relapsed/refractory AML: safety", "parameters": "species or system human", "settings": "in vivo", "experimental": "A Phase 2 study of Compound I-1 using different regimens and doses (randomized 5-day regimen cohorts of 60 mg/m^2/d vs 90 mg/m^2/d SC) and a cohort of 10-day regimen in the first 1-4 cycles at 60 mg/m^2/d followed by subsequent cycles of 5-day regimen) was conducted as described above. Response and duration of response were assessed using IWG 2003 criteria: Complete Response (CR), CR with incomplete platelet recovery (CRp), and CR with incomplete count recovery (CRi). CR+CRp+CRi was defined as composite CR (CRc). Overall survival (OS) was assessed using the Kaplan-Meier (KM) method. Response status for each dose/regimen cohort and the overall treated population were assessed with analyses of duration of response and long-term survival."}, "[3]": {"experiment": "Phase 1/2 trial safety: adverse events, all-cause mortality", "format": "in vivo, human", "text": "Safety was monitored throughout the study by physical examinations and clinical laboratory tests, including hematology, chemistry for liver and renal function, urinalysis, pregnancy tests, pharmacokinetics, epi-genetics, buccal swab, and pharmacogenetic markers. Electrocardiograms were obtained at baseline screening and day 1 of each treatment cycle.\nThe primary endpoint was overall response, which was a composite of complete response (CR), partial response, marrow complete response (mCR), and hematological improvement. Overall response was assessed by local investigators. Secondary endpoints included the individual components of overall response, time to response, duration of response, overall survival, blood transfusion and platelet transfusion independence at weeks 8 and 16, and safety, including the incidence of adverse events, and all-cause early mortality at 30, 60, and 90 days. Exploratory analyses were done to examine the association between baseline characteristics and overall response.\nTreatment-emergent adverse events, which are events that first occurred or worsened after the first dose of study drug until 30 days after the last dose or until the start of an alternative anticancer treatment (whichever occurred first), and all-cause 30-day, 60-day, and 90-day cumulative mortality, were summarized descriptively."}},
  "data": [
    {"smiles": "Nc1ncn([C@H]2CC(OP(=O)(O)OC[C@H]3O[C@@H](n4cnc5c(=O)[nH]c(N)nc54)CC3O)[C@@H](CO)O2)c(=O)n1", "note": "(stereo partly drawn) [Compound I-1]", "values": [
      {"measurement": "Exposure to active metabolite decitabine", "setting": "[1]; Compound I-1 SC vs decitabine IV", "result": "longer exposure to the active metabolite decitabine"},
      {"measurement": "Time of highest mean plasma Compound I-1 concentration (first collection time point)", "setting": "[1]; after SC injection", "result": 1.5, "unit": "h"},
      {"measurement": "Grade 3 or higher AEs related to the drug", "setting": "[2]", "result": 42, "unit": "%"},
      {"measurement": "Related serious AEs leading to death", "setting": "[2]", "result": "no related serious AEs leading to death"},
      {"measurement": "Patients who died from serious adverse events", "setting": "[3]; all treated", "result": "Seven"},
      {"measurement": "Drug-related serious adverse event anemia", "setting": "[3]; human, in vivo", "result": 3, "unit": "%"},
      {"measurement": "Drug-related serious adverse event pneumonia", "setting": "[3]; human, in vivo", "result": 7, "unit": "%"},
      {"measurement": "Drug-related serious adverse event thrombocytopenia", "setting": "[3]; human, in vivo", "result": 3, "unit": "%"},
      {"measurement": "30-day all-cause mortality", "setting": "[3]; of 102 patients", "result": 1, "unit": "%"},
      {"measurement": "60-day all-cause mortality", "setting": "[3]; of 102 patients", "result": 4, "unit": "%"},
      {"measurement": "90-day all-cause mortality", "setting": "[3]; of 102 patients", "result": 9, "unit": "%"},
      {"measurement": "Serious adverse events that led to death considered treatment related", "setting": "[3]; pneumonia with 90 mg/m^2 and septic shock with 60 mg/m^2", "result": "two"}
    ]}
  ]
}
